According to patent US20050020615A1, “CCI-779 lyophilized formulations” (Wyeth, priority 2003, published 2005):

Columns and labels:
Solubility in water = type: physicochemical
[1] = Chemical stability of CCI-779 in solution (pH, chelating agent); type: physicochemical; conditions: citric acid at less than 0.01% w/v
From the text: Desirably, when a significant amount of water (e.g,. 40% v/v or greater) is present in the solvent blend of the pre-lyophilized solution, it is advantageous to adjust the pH to 4 to 6 as this is the range of maximum stability for CCI-779. In one embodiment, the pH is adjusted to a pH of about 5.5.
In some embodiments, components with chelating activity are included in the formulations of the invention as the sole “antioxidant component”. Typically, such metal-binding components, when acting as chelating agents are used in the lower end of the range of concentrations for the antioxidant component provided herein. […] Additionally, such chelating agents may be used in combination with other antioxidants as part of the antioxidant component of the invention. For example, an acceptable formulation may contain both citric acid and d,l-α-tocopherol. Optimal concentrations for the selected antioxidant(s) can be readily determined by one of skill in the art, based upon the information provided herein. All percentages are expressed a % w/v in the pre-lyophilized solution.
Desirably, the pre-lyophilization solution has a pH in the range of 4 to 6, which has been found by the inventor to improve the stability of CCI-779. Depending upon the components of the pre-lyophilization solution, the pH can be adjusted using any suitable inorganic or organic acid, or base, as needed. […]

[2] = test system: histologically diverse tumor cells; conditions: in vitro; cited from earlier work
[3] = test system: human tumor xenografts of diverse histological types; conditions: nude mice; cited from earlier work
orthotopic glioma = conditions: nude mice; cited from earlier work
[4] = test system: human glioblastoma cell line; conditions: in vitro, platelet-derived growth factor; cited from earlier work

- solubility in water (Solubility in water): poor solubility in water
- effect of citric acid on stability of CCI-779 [1]: enhanced the stability
SMILES: CO[C@H]1C[C@@H]2CC[C@@H](C)[C@@](O)(O2)C(=O)C(=O)N2CCCC[C@H]2C(=O)O[C@H]([C@H](C)C[C@@H]2CC[C@@H](OC(=O)C(C)(CO)CO)[C@H](OC)C2)CC(=O)[C@H](C)/C=C(\C)[C@@H](O)[C@@H](OC)C(=O)[C@H](C)C[C@H](C)/C=C/C=C/C=C/1C [CCI-779, rapamycin 42-ester with 3-hydroxy-2-(hydroxymethyl)-2-methylpropionic acid]
- growth of tumor cells [2]: inhibit the growth
- activity against xenografts [3]: has activity
- activity in orthotopic glioma model (orthotopic glioma): active
- growth factor-induced stimulation of cells [4]: markedly suppressed
